Data from patent US20240261417A1, “SOS1 DEGRADING AGENT AND PREPARATION METHOD THEREFOR AND APPLICATION THEREOF” (SHANGHAI LEADINGTAC PHARMACEUTICAL CO. LTD., priority 2021, published 2024).
Read-outs that look alike come from different tables or passages of the source.

Molecular target: T1, SOS1 protein (Homo sapiens, UniProt Q07889)
T1 sequence (Q07889 1-1333): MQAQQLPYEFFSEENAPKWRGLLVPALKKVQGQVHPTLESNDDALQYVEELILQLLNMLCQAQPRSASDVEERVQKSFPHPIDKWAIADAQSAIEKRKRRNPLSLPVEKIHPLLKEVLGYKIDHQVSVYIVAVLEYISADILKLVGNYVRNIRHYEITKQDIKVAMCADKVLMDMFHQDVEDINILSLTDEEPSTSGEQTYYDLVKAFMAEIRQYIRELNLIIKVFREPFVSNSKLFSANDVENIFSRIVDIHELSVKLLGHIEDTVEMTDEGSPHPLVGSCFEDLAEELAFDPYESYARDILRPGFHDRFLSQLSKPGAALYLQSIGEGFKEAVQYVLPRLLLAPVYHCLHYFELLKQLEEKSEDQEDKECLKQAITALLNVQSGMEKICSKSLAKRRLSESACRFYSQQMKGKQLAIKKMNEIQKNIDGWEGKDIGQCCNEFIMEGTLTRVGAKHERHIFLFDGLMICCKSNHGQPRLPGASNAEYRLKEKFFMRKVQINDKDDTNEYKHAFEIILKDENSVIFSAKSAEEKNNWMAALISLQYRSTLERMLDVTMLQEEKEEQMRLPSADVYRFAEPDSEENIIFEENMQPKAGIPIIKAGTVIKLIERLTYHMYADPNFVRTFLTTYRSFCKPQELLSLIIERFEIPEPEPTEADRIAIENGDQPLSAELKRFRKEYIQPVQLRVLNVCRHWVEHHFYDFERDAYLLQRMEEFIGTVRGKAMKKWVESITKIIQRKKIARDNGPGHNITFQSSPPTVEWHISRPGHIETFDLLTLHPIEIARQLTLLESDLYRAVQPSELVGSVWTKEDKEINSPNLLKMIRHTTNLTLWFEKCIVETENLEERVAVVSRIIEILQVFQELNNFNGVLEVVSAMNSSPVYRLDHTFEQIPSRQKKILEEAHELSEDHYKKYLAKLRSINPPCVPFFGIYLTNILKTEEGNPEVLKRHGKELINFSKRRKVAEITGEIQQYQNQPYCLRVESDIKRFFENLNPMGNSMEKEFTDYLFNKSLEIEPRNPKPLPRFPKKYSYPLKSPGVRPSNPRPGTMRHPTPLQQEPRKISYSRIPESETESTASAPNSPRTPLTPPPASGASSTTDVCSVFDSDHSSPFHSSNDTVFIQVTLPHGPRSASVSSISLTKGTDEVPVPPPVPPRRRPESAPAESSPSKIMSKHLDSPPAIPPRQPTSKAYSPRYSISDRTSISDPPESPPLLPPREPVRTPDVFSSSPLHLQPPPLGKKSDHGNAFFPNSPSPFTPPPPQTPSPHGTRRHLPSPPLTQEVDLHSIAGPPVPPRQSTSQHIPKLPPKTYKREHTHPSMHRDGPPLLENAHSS
Assay: SOS1 degradation assay (Western blot), NCI-H358 cells
Type: cell-based
Set-up: The degradation of SOS1 by the compounds was investigated on KRAS G12C mutant human non-small cell lung cancer cells NCI-H358; host or cells: NCI-H358 (human cancer cell lines)
Conditions: for DC50: read-out: NCI-H358 (G12C) DC50
How it was run: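 Cells at 5×10^5 per well were treated for 24 h at 37 °C with compound at 0.03–3000 nM final. SOS1 in lysates was measured by Western blot with chemiluminescent densitometry and normalised to the control group. DC50 and Dmax came from nonlinear fits against log concentration.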

[1] = SOS1 degradation, NCI-H358 cells, 24 h, Western blot
[2] = SOS1 degradation, NCI-H358 cells, 24 h, Western blot, read-out: NCI-H358 (G12C) Dmax

Row | Structure (SMILES) | DC50 [1] | Dmax [2] | Dmax (NCI-H358, read-out: NCI-H358 (G12C) Dmax)
1 | COc1cc2nc(C)nc(N[C@H](C)c3cc(N)cc(C(F)(F)F)c3)c2cc1[C@H]1CC[C@H](C(=O)N2CCC(CCC3CCN(C(=O)c4ccc(Cl)c(N5CCC(=O)NC5=O)c4)CC3)CC2)CC1 [Example 15, 1-(5-(4-(2-(1-((1R,4R)-4-(4-(((R)-1-(3-amino-5-(trifluoromethyl)phenyl)ethyl)amino)-7-methoxy-2-methylquinazolin-6-yl)cyclohexane-1-carbonyl)piperidin-4-yl)ethyl)piperidine-1-carbonyl)-2-chlorophenyl)dihydropyrimidine-2,4(1H,3H)-dione] | 1000 to 10000 nM | < 30% | 
2 | COc1cc2nc(C)nc(N[C@H](C)c3cc(N)cc(C(F)(F)F)c3)c2cc1C1CCC(C(=O)N2CCC(CCOCC3CCN(C(=O)c4ccc5c(c4)C(=O)N(C4CCC(=O)NC4=O)C5=O)CC3)CC2)CC1 (stereo partly drawn) [Example 39, 5-(4-((2-(1-((1S,4S)-4-(4-(((R)-1-(3-amino-5-(trifluoromethyl)phenyl)ethyl)amino)-7-methoxy-2-methylquinazolin-6-yl)cyclohexane-1-carbonyl)piperidin-4-yl)ethoxy)methyl)piperidine-1-carbonyl)-2-(2,6-dioxopiperidin-3-yl)isoindoline-1,3-dione] | < 50 nM | 80 to 100% | 
3 | COc1cc2nc(C)nc(N[C@H](C)c3cc(NC(C)C)cc(C(F)(F)F)c3)c2cc1[C@H]1CC[C@H](C(=O)N2CCN(CC3CCC4(CC3)CCN(C(=O)c3ccc(Cl)c(N5CCC(=O)NC5=O)c3)CC4)CC2)CC1 [Example 18, 1-(2-chloro-5-(9-((4-((1R,4R)-4-(4-(((R)-1-(3-(isopropylamino)-5-(trifluoromethyl)phenyl)ethyl)amino)-7-methoxy-2-methylquinazolin-6-yl)cyclohexane-1-carbonyl)piperazin-1-yl)methyl)-3-azaspiro[5.5]undecane-3-carbonyl)phenyl)dihydropyrimidine-2,4(1H,3H)-dione] | 1000 to 10000 nM |  | < 30%
4 | COc1cc2nc(C)nc(N[C@H](C)c3cc(N)cc(C(F)(F)F)c3)c2cc1[C@H]1CC[C@H](C(=O)N2CCN(CC3CCN(C(=O)COc4ccc(Cl)c(N5CCC(=O)NC5=O)c4)CC3)CC2)CC1 [Example 37, 1-(5-(2-(4-((4-((1R,4R)-4-(4-(((R)-1-(3-amino-5-(trifluoromethyl)phenyl)ethyl)amino)-7-methoxy-2-methylquinazolin-6-yl)cyclohexane-1-carbonyl)piperazin-1-yl)methyl)piperidin-1-yl)-2-oxoethoxy)-2-chlorophenyl)dihydropyrimidine-2,4(1H,3H)-dione] | 1000 to 10000 nM | < 30% | 
5 | COc1cc2nc(C)nc(N[C@H](C)c3cc(N)cc(C(F)(F)F)c3)c2cc1[C@H]1CC[C@H](C(=O)N2CCC(CCN(C)CC3CCN(C(=O)c4ccc(Cl)c(N5CCC(=O)NC5=O)c4)CC3)CC2)CC1 [Example 25, 1-(5-(4-(((2-(1-((1R,4R)-4-(4-(((R)-1-(3-amino-5-(trifluoromethyl)phenyl)ethyl)amino)-7-methoxy-2-methylquinazolin-6-yl)cyclohexane-1-carbonyl)piperidin-4-yl)ethyl)(methyl)amino)methyl)piperidine-1-carbonyl)-2-chlorophenyl)dihydropyrimidine-2,4(1H,3H)-dione] | 1000 to 10000 nM | < 30% | 
6 | COc1cc2nc(C)nc(N[C@H](C)c3cc(N)cc(C(F)(F)F)c3)c2cc1O[C@H]1CC[C@H](C(=O)N2CCN(CC3CCC4(CC3)CCN(C(=O)c3ccc(Cl)c(N5CCC(=O)NC5=O)c3)CC4)CC2)CC1 [Example 31, 1-(5-(9-((4-((1R,4R)-4-((4-(((R)-1-(3-amino-5-(trifluoromethyl)phenyl)ethyl)amino)-7-methoxy-2-methylquinazolin-6-yl)oxo)cyclohexane-1-carbonyl)piperazin-1-yl)methyl)-3-azaspiro[5.5]undecane-3-carbonyl)-2-chlorophenyl)dihydropyrimidine-2,4(1H,3H)-dione] | 1000 to 10000 nM | < 30% | 

Now from value to compound, other results behind:

Row | DC50 [1] | Dmax [2] | Structure (SMILES) | Dmax (NCI-H358, read-out: NCI-H358 (G12C) Dmax)
7 | 1000 to 10000 nM | < 30% | COc1cc2nc(C)nc(N[C@H](C)c3cc(N)cc(C(F)(F)F)c3)c2cc1[C@H]1CC[C@H](C(=O)N2CCC(CCCN(C)C3CCN(Cc4ccc(Cl)c(N5CCC(=O)NC5=O)c4)CC3)CC2)CC1 [Example 38, 1-(5-((4-((3-(1-((1R,4R)-4-(4-(((R)-1-(3-amino-5-(trifluoromethyl)phenyl)ethyl)amino)-7-methoxy-2-methylquinazolin-6-yl)cyclohexane-1-carbonyl)piperidin-4-yl)propyl)(methyl)amino)piperidin-1-yl)methyl)-2-chlorophenyl)dihydropyrimidine-2,4(1H,3H)-dione] | 
8 | 50 to 100 nM | 30 to 50% | COc1cc2nc(C)nc(N[C@H](C)c3cc(N)cc(C(F)(F)F)c3)c2cc1C1CCN(C(=O)C2CCN(CC3CCC4(CC3)CCN(C(=O)c3ccc(Cl)c(N5CCC(=O)NC5=O)c3)CC4)CC2)CC1 [Example 4] | 
9 | 1000 to 10000 nM | 30 to 50% | COc1cc2nc(C)nc(N[C@H](C)c3cc(N)cc(C(F)(F)F)c3)c2cc1[C@H]1CC[C@H](C(=O)N2CCN(CCCC3CCN(C(=O)c4ccc(Cl)c(N5CCC(=O)NC5=O)c4)CC3)CC2)CC1 [Example 11, 1-(5-(4-(3-(4-((1R,4R)-4-(4-(((R)-1-(3-amino-5-(trifluoromethyl)phenyl)ethyl)amino)-7-methoxy-2-methylquinazolin-6-yl)cyclohexane-1-carbonyl)piperazin-1-yl)propyl)piperidine-1-carbonyl)-2-chlorophenyl)dihydropyrimidine-2,4(1H,3H)-dione] | 
10 | < 50 nM | 80 to 100% | COc1cc2nc(C)nc(N[C@H](C)c3cc(N)cc(C(F)(F)F)c3)c2cc1[C@H]1CC[C@H](C(=O)N2CCN(CCCCC3CCN(C(=O)c4ccc(Cl)c(N5CCC(=O)NC5=O)c4)CC3)CC2)CC1 [Example 29, 1-(5-(4-(4-(4-((1R,4R)-4-(4-(((R)-1-(3-amino-5-(trifluoromethyl)phenyl)ethyl)amino)-7-methoxy-2-methylquinazolin-6-yl)cyclohexane-1-carbonyl)piperazin-1-yl)butyl)piperidine-1-carbonyl)-2-chlorophenyl)dihydropyrimidine-2,4(1H,3H)-dione] | 
11 | 100 to 500 nM | 50 to 80% | COc1ccc(C(=O)N2CCC(COCCC3CCN(C(=O)[C@H]4CC[C@H](c5cc6c(N[C@H](C)c7cc(N)cc(C(F)(F)F)c7)nc(C)nc6cn5)CC4)CC3)CC2)cc1N1CCC(=O)NC1=O [Example 36, 1-(5-(4-((2-(1-((1R,4R)-4-(4-(((R)-1-(3-amino-5-(trifluoromethyl)phenyl)ethyl)amino)-2-methylpyrido[3,4-d]pyrimidin-6-yl)cyclohexane-1-carbonyl)piperidin-4-yl)ethoxy)methyl)piperidine-1-carbonyl)-2-methoxyphenyl)dihydropyrimidine-2,4(1H,3H)-dione] | 
